In patent US20240208954A1, “OXADIAZOLE COMPOUND, PREPARATION METHOD THEREFOR, PHARMACEUTICAL COMPOSITION AND USE THEREOF” (SHANGHAI INSTITUTE OF MATERIA MEDICA, CHINESE ACADEMY OF …, priority 2020, published 2024):
Several values for one entry are separate records, joined by “and”; a condition that tells them apart may be missing. Identical values can stand only once. Like-named read-outs stand apart in the source and are kept apart here.

Key:
S1P2 = S1P2 (Homo sapiens, UniProt O95136); test: Subtype selectivity study, method of Experimental Example 1; format: cell-based
Description: (§1) Experimental method: CHO-K1/Ga15/EDG1 cells stably expressing EDG1 receptor were cultured in a 10 cm culture dish in a 37° C./5% CO2incubator, and digested when the confluence rate reached 80%-85%. The cells in collected cell suspension were inoculated into 384 microtiter plates at appropriate density, and then placed in a 37° C./5% CO2 incubator and continue to incubate for at least 18 hours before using for experiments. After 18-20 hours, the cell culture plat was taken out and added with dye working solution, and then the plate was placed in a 37° C./5% CO2 incubator for 1 hour, and finally equilibrated at room temperature for 15 minutes. Positive agonist working solution was added, and RFU values were detected and recorded. The 384 microplates, cell plates and tip box with positive agonist working solution were placed into FLIPRTM TETRA and the agonist mode assay program was run with an overall assay time of 120 seconds. The positive agonist working fluid was added to the cell culture plate at the 21st second. 384 microplate, cell plate and gun head box containing the positive antagonist working fluid were put into the FLIPRTM TETRA. The antagonistic mode detection program, the overall detection time of the instrument was 120 seconds, and positive antagonist working solution was added to the cell culture plate at the 21st second. Data processing: Raw data were obtained via ScreenWorks (version 3.1) and saved as *FMD files on the […] computer network system. Data were collected and analyzed using Excel and GraphPad Prism 6 software programs. […] The four-parameter equation was as follows: y=Bottom+(Top-Bottom)/(1+10^((LogEC50/IC50-X)*HillSlope)), wherein X is the Log value of the concentration and Y was the inhibition rate. The S1P receptor selectivity was tested for different subtypes using the method described in Experimental Example 1.

S1P5 = S1P5 (Homo sapiens, UniProt Q9H228); test: as above; format: cell-based
Description: as §1

[1] = Preliminary evaluation of pharmacokinetics in Beagle dogs; format: in vivo; conditions: for MRT inf: read-out: MRT0-∞; for concentration at 0.083 h / concentration at 0.25 h / concentration at 0.5 h / concentration at 1 h / concentration at 2 h / concentration at 3 h / concentration at 4 h / concentration at 6 h: read-out: Plasma drug concentration in Beagle dogs
[2] = Beagle dogs, intragastric 3 mg/kg, individual animals 4-6, listed as DC411151
[3] = Beagle dogs, intravenous 0.5 mg/kg, individual animals 1-3, listed as DC411151, 0.5 mg/kg
[4] = Beagle, dog, plasma, po, 3 mg/kg, Beagle dogs, intragastric 3 mg/kg, individual animals 4-6
[5] = Beagle, dog, plasma, po, 3 mg/kg, Beagle dogs, intragastric 3 mg/kg, mean
[6] = beagle, dog, plasma, iv, 0.5 mg/kg, Beagle dogs, intravenous 0.5 mg/kg, individual animals 1-3
[7] = beagle, dog, plasma, iv, 0.5 mg/kg, Beagle dogs, intravenous 0.5 mg/kg, mean
[8] = beagle, dog, plasma, iv, 0.5 mg/kg, intravenous 0.5 mg/kg, individual animals 1-3
[9] = beagle, dog, plasma, iv, 0.5 mg/kg, intravenous 0.5 mg/kg, mean

S1P2, sequence (O95136 whole entry, species assumed): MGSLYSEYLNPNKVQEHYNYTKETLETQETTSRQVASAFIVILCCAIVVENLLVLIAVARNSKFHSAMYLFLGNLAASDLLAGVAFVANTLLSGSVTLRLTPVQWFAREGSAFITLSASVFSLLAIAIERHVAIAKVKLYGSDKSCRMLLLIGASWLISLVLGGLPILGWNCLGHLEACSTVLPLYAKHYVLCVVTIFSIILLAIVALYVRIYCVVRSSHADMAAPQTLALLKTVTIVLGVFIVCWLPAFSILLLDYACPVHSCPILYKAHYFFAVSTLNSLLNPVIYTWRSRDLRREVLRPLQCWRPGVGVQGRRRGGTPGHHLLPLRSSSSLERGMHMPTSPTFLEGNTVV
S1P5, sequence (Q9H228 whole entry, species assumed): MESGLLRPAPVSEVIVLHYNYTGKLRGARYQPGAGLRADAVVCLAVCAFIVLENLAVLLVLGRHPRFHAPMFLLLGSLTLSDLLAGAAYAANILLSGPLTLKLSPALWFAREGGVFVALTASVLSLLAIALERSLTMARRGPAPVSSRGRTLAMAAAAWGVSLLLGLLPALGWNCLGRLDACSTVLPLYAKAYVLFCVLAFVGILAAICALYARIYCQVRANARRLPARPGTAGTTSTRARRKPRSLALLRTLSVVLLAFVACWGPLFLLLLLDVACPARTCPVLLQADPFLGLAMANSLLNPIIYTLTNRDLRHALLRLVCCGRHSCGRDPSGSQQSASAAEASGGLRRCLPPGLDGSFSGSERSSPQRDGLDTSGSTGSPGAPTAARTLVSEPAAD

CC(C)Oc1ccc(-c2nc(-c3ccc(CN4CC(C(=O)O)C4)c4ccccc34)no2)cc1C#N.Cl [Compound A1, 1-((4-(5-(3-cyano-4-isopropoxyphenyl)-1,2,4-oxadiazol-3-yl)naphthalen-1-yl)methyl) azetidine-3-carboxylic acid hydrochloric acid]
EC50 (S1P2): > 10000 nM | EC50 (S1P5): 120 nM | AUC0-t [1, 2]: 1170 ng·h/mL and 1550 ng·h/mL and 757 ng·h/mL | AUC0-∞ [1, 2]: 1200 ng·h/mL and 1570 ng·h/mL and 765 ng·h/mL | Cmax [1, 2]: 318 ng/mL and 539 ng/mL and 242 ng/mL | MRT0-∞ [1, 2]: 2.58 h and 2.44 h | Tmax [1, 2]: 1 h and 0.25 h and 2 h | t1/2 [1, 2]: 1.32 h and 1.06 h | plasma clearance as share of dog liver blood flow (about 31 mL/min/kg) ([1]; Beagle dogs, intravenous 0.5 mg/kg): 75.2% | AUC0-t [1, 3]: 317 ng·h/mL and 382 ng·h/mL | AUC0-∞ [1, 3]: 319 ng·h/mL and 382 ng·h/mL | CL [1, 3]: 26.1 mL/min/kg and 21.8 mL/min/kg | MRT0-∞ [1, 3]: 0.892 h and 0.952 h | Vss [1, 3]: 1.40 L/kg and 1.24 L/kg | t1/2 [1, 3]: 1.05 h and 0.905 h | half-life [1, 4]: 1.3 h | MRT inf [1, 4]: 2.93 h | AUC(0-inf) [1, 5]: 1180 ng·h/mL | half-life [1, 5]: 1.23 h | MRT inf [1, 5]: 2.65 h | Tmax ([1]; Beagle, dog, plasma, po, 3 mg/kg, Beagle dogs, intragastric 3 mg/kg, mean, read-out: Tmax): 1.08 h | AUC(0-inf) [1, 6]: 379 ng·h/mL | clearance [1, 6]: 22 mL/min/kg | half-life [1, 6]: 0.997 h | AUC0-t ([1]; beagle, dog, plasma, iv, 0.5 mg/kg, Beagle dogs, intravenous 0.5 mg/kg, individual animals 1-3, read-out: AUC0-t): 375 ng·h/mL | MRT inf [1, 6]: 0.91 h | Vd ([1]; beagle, dog, plasma, iv, 0.5 mg/kg, Beagle dogs, intravenous 0.5 mg/kg, individual animals 1-3, read-out: Vss): 1.2 L/kg | AUC(0-inf) [1, 7]: 360 ng·h/mL | AUC0-t ([1]; beagle, dog, plasma, iv, 0.5 mg/kg, Beagle dogs, intravenous 0.5 mg/kg, mean, read-out: AUC0-t): 358 ng·h/mL | MRT inf [1, 7]: 0.918 h | concentration at 0.083 h [1, 8]: 604 ng/mL | concentration at 0.083 h [1, 9]: 565 ng/mL | concentration at 0.25 h [1, 8]: 237 ng/mL | concentration at 0.25 h [1, 9]: 265 ng/mL | concentration at 0.5 h [1, 8]: 190 ng/mL | concentration at 0.5 h [1, 9]: 168 ng/mL | concentration at 1 h [1, 8]: 98.8 ng/mL | concentration at 1 h [1, 9]: 90.9 ng/mL | concentration at 2 h [1, 8]: 27.5 ng/mL | concentration at 2 h [1, 9]: 30.2 ng/mL | concentration at 3 h [1, 8]: 20.4 ng/mL | concentration at 3 h [1, 9]: 17.7 ng/mL | concentration at 4 h [1, 8]: 9.68 ng/mL | concentration at 4 h [1, 9]: 9.39 ng/mL | concentration at 6 h [1, 8]: 2.51 ng/mL | concentration at 6 h [1, 9]: 2.21 ng/mL
